{"source": "patent US4425356A", "about": "“Lankacidin derivatives used in swine husbandry” (Takeda Chemical Industries, Ltd., priority 1980, dated 1984)", "key": {"[1]": {"test_system": "Treponema hyodysenteriae", "assay": "in vitro antibacterial activity (MIC, agar dilution method), Test Examples 1-3", "type": "cell-based", "conditions": "37° C., 2 days, anaerobic; for MIC: Brachyspira hyodysenteriae, 48 h", "experimental": "Several agents were tested for in vitro antibacterial activity against Treponema hyodysenteriae, the pathogenic bacteria causing swine dysentery, by the method of testing drug sensitivity of Treponema hyodysenteriae (Kashiwazaki et al. Abstracts of Papers presented at the 82nd Meeting of the Japanese Society of Veterinary Science, page 101, 1976).\n(1) Strains: These strains belong to Treponema hyodysenteriae isolated\nfrom the bloody mucous faeces of dysenteric pigs in Japan.\n(2) Antimicrobial activity assay: Agar dilution method\n(3) Inoculum size: A loopful of bacterial suspension (10^6 CFU/ml)\n(4) Cultural conditions: GasPak anaerobic system (BBL), 37° C., 2\nTypical agents among compound (I) were tested for in vitro antibacterial activity by the same method as in Test Example 1.\nThe experimental conditions are the same as in Test Example 1 (Table 1).\nAgents of compound (I) were tested for in vitro antibacterial activity by the same method as in Test Example 1."}, "[2]": {"test_system": "Treponema hyodysenteriae 78/A strain", "assay": "efficacy against swine dysentery under experimental infection conditions in pigs (drug in feed), Test Examples 5-7", "type": "in vivo, Landrace pigs", "conditions": "for Body weight gain / Feed conversion / Feed intake: 21 day period; for Body weight gain / Feed conversion / Feed intake / Body weight at the time of completion of test: mean per head", "experimental": "Lankacidin C was tested for efficacy against swine dysentery under experimental infection conditions. Thus, twelve 6-week-old Landrace pigs (4 per group) were used. The test drug was admixed to a concentration of 100 ppm with the domestically formulated starter feed for young pigs without antibiotics. The animals were provided with the ration ad libitum. Infection of the pigs was effected by direct intragastrical administration to the SPF pigs of an inoculum prepared by preliminary anaerobic cultivation of the Treponema hyodysenteriae 78/A strain on a 5% horse blood added agar plate, mashing together with the culture medium and admixing with 5% mucin added phosphate buffer. Colonic contents and mucosa were collected from pigs which developed typical signs of swine dysentery, and diluted two-fold with 5% mucin added phosphate buffer. The dilution was used as the final inoculum, and 100 ml of the dilution was directly injected into the stomach of test pigs at the age of 7 weeks (fasted for 24 hours before infection). The pigs were fed for 21 days following infection.\nThe data are each the mean value per head for the 21day period from\ninfection to autopsy. Different alphabetic letters on the same line\nindicate that there is a significant difference between the data to which\nthey are attached (P <0.05).\nLankacidin C was tested at concentrations in feed of 100 ppm and lower by the same method as in Test Example 5, with carbadox, a commonly used anti-swine-dysentery agent, for comparison.\nThe anti-swine-dysentery effects of 10 ppm each of lankacidin A and lankacidin C 14-propionate were examined by the procedure of Test Example 6."}, "[3]": {"conditions": "strain 78/A, read-out: Minimum Inhibitory Concentration"}, "[4]": {"conditions": "strain CD1 (CD-1), read-out: Minimum Inhibitory Concentration"}, "[5]": {"conditions": "strain DJ70P1, read-out: Minimum Inhibitory Concentration"}, "[6]": {"conditions": "strain MK-2, read-out: Minimum Inhibitory Concentration"}, "[7]": {"conditions": "100 ppm in feed, 21-day test period"}, "[8]": {"conditions": "50 ppm in feed, 21-day test period"}}, "note": "“And” between values parts separate entries of the source, which are not always exact repeats. Equal values may be shown once. Read-outs that look alike come from different tables or passages of the source."}
{"compound": "CCCC(=O)OC1C=CC(C)=CCC(O)C=CC(C)=CC(NC(=O)C(C)=O)C2(C)C(=O)OC(C1)C(C)C2=O", "note": "(stereo not drawn) [Lankacidin C 14-butyrate]", "values": [{"measurement": "MIC", "setting": "[1]; [3]", "value": 0.78, "unit": "µg/mL"}, {"measurement": "MIC", "setting": "[1]; [4]", "value": 1.56, "unit": "µg/mL"}, {"measurement": "MIC", "setting": "[1]; [5]", "value": 1.56, "unit": "µg/mL"}, {"measurement": "MIC", "setting": "[1]; [6]", "value": 3.13, "unit": "µg/mL"}]}
{"compound": "Spiramycin [reference compound]", "values": [{"measurement": "Minimum Inhibitory Concentration", "setting": "[1]; strain 78/A", "value": "> 100", "unit": "µg/mL"}, {"measurement": "Minimum Inhibitory Concentration", "setting": "[1]; strain CD1 (CD-1)", "value": "> 100", "unit": "µg/mL"}, {"measurement": "Minimum Inhibitory Concentration", "setting": "[1]; strain DJ70P1", "value": "> 100", "unit": "µg/mL"}, {"measurement": "Minimum Inhibitory Concentration", "setting": "[1]; strain MK-2", "value": "> 100", "unit": "µg/mL"}]}
{"compound": "Maridomycin [reference compound]", "values": [{"measurement": "Minimum Inhibitory Concentration", "setting": "[1]; strain 78/A", "value": "> 100", "unit": "µg/mL"}, {"measurement": "Minimum Inhibitory Concentration", "setting": "[1]; strain CD1 (CD-1)", "value": "> 100", "unit": "µg/mL"}, {"measurement": "Minimum Inhibitory Concentration", "setting": "[1]; strain DJ70P1", "value": "> 100", "unit": "µg/mL"}, {"measurement": "Minimum Inhibitory Concentration", "setting": "[1]; strain MK-2", "value": "> 100", "unit": "µg/mL"}, {"measurement": "Number of pigs from which the pathogen was detected, in colonic mucosa", "setting": "[2]; 100 ppm in feed", "value": 4}, {"measurement": "Number of pigs from which the pathogen was detected, in feces", "setting": "[2]; 100 ppm in feed", "value": 4}, {"measurement": "Number of pigs showing colonic lesions", "setting": "[2]; 100 ppm in feed", "value": 4}, {"measurement": "Number of days on which diarrhea was observed", "setting": "[2]; [7]", "value": 11.0, "unit": "days"}, {"measurement": "Number of days on which mucous bloody stool was observed", "setting": "[2]; [7]", "value": 5.5, "unit": "days"}, {"measurement": "Number of pigs showing signs of infection/number of pigs used", "setting": "[2]; [7]", "value": "3/4"}, {"measurement": "Body weight gain", "setting": "[2]; 100 ppm in feed", "value": 430, "unit": "grams/day"}, {"measurement": "Feed conversion", "setting": "[2]; 100 ppm in feed", "value": 2.09}, {"measurement": "Feed intake", "setting": "[2]; 100 ppm in feed", "value": 18.8, "unit": "kg"}, {"measurement": "Body weight at the time of completion of test", "setting": "[2]; 100 ppm in feed", "value": 21.9, "unit": "kg"}, {"measurement": "effect against swine dysentery (in words)", "setting": "[2]; pig, in vivo", "value": "ineffective"}]}
{"compound": "COC(=O)N/N=C/c1c[n+]([O-])c2ccccc2[n+]1[O-]", "note": "[Carbadox, carbadox, reference compound]", "values": [{"measurement": "Number of pigs from which the pathogen was detected, in colonic mucosa", "setting": "[2]; 50 ppm in feed", "value": 0}, {"measurement": "Number of pigs from which the pathogen was detected, in feces", "setting": "[2]; 50 ppm in feed", "value": 0}, {"measurement": "Number of pigs showing colonic lesions", "setting": "[2]; 50 ppm in feed", "value": 0}, {"measurement": "Number of days on which mucous bloody stool was observed", "setting": "[2]; [8]", "value": 0, "unit": "days"}, {"measurement": "Number of pigs showing signs of infection/number of pigs used", "setting": "[2]; [8]", "value": "0/4"}, {"measurement": "Body weight gain", "setting": "[2]; 50 ppm in feed", "value": "473 grams/day and 552 grams/day"}, {"measurement": "Feed conversion", "setting": "[2]; 50 ppm in feed", "value": "2.08 and 1.83"}, {"measurement": "Feed intake", "setting": "[2]; 50 ppm in feed", "value": "20.7 kg and 21.2 kg"}, {"measurement": "Body weight at the time of completion of test", "setting": "[2]; 50 ppm in feed", "value": "21.0 kg and 22.7 kg"}]}
{"compound": "CCCC(=O)OC1C=CC(C)=CC(NC(=O)C(C)=O)C2(C)C(=O)OC(CC(OC(=O)CCC)C=CC(C)=CC1)C(C)C2=O", "note": "(stereo not drawn) [Lankacidin C 8,14-dibutyrate]", "values": [{"measurement": "MIC", "setting": "[1]; [3]", "value": 1.56, "unit": "µg/mL"}, {"measurement": "MIC", "setting": "[1]; [4]", "value": 3.13, "unit": "µg/mL"}, {"measurement": "MIC", "setting": "[1]; [5]", "value": 3.13, "unit": "µg/mL"}, {"measurement": "MIC", "setting": "[1]; [6]", "value": 3.13, "unit": "µg/mL"}]}
{"compound": "CCC[C@@H]1C[C@@H](C(=O)N[C@@H]([C@H]2O[C@H](SC)[C@H](O)[C@@H](O)[C@H]2O)[C@@H](C)O)N(C)C1", "note": "[Lincomycin, reference compound]", "values": [{"measurement": "MIC", "setting": "[1]; [3]", "value": 50, "unit": "µg/mL"}, {"measurement": "MIC", "setting": "[1]; [4]", "value": 50, "unit": "µg/mL"}, {"measurement": "MIC", "setting": "[1]; [5]", "value": 50, "unit": "µg/mL"}, {"measurement": "MIC", "setting": "[1]; [6]", "value": 50, "unit": "µg/mL"}]}
{"compound": "CCC(=O)OC1C=CC(C)=CC(NC(=O)C(C)=O)C2(C)C(=O)OC(CC(OC(C)=O)C=CC(C)=CC1)C(C)C2=O", "note": "(stereo not drawn) [Lankacidin A 8-propionate, lankacidin A 8-propionate]", "values": [{"measurement": "MIC", "setting": "[1]; [3]", "value": 6.25, "unit": "µg/mL"}, {"measurement": "MIC", "setting": "[1]; [4]", "value": 6.25, "unit": "µg/mL"}, {"measurement": "MIC", "setting": "[1]; [5]", "value": 6.25, "unit": "µg/mL"}, {"measurement": "MIC", "setting": "[1]; [6]", "value": 6.25, "unit": "µg/mL"}]}
{"compound": "CCCCC(=O)OC1C=CC(C)=CCC(O)C=CC(C)=CC(NC(=O)C(C)=O)C2(C)C(=O)OC(C1)C(C)C2=O", "note": "(stereo not drawn) [Lankacidin C 14-valerate]", "values": [{"measurement": "MIC", "setting": "[1]; [3]", "value": 3.13, "unit": "µg/mL"}, {"measurement": "MIC", "setting": "[1]; [4]", "value": 6.25, "unit": "µg/mL"}, {"measurement": "MIC", "setting": "[1]; [5]", "value": 3.13, "unit": "µg/mL"}, {"measurement": "MIC", "setting": "[1]; [6]", "value": 6.25, "unit": "µg/mL"}]}
{"compound": "CC[C@H]1OC(=O)[C@H](C)[C@@H](O[C@H]2C[C@@](C)(OC)[C@@H](O)[C@H](C)O2)[C@H](C)[C@@H](O[C@@H]2O[C@H](C)C[C@H](N(C)C)[C@H]2O)[C@](C)(O)C[C@@H](C)C(=O)[C@H](C)[C@@H](O)[C@]1(C)O", "note": "[Erythromycin, reference compound]", "values": [{"measurement": "MIC", "setting": "[1]; read-out: Minimum Inhibitory Concentration, strain 78/A", "value": "> 100", "unit": "µg/mL"}, {"measurement": "MIC", "setting": "[1]; read-out: Minimum Inhibitory Concentration, strain CD1 (CD-1)", "value": "> 100", "unit": "µg/mL"}, {"measurement": "MIC", "setting": "[1]; read-out: Minimum Inhibitory Concentration, strain DJ70P1", "value": "> 100", "unit": "µg/mL"}, {"measurement": "MIC", "setting": "[1]; read-out: Minimum Inhibitory Concentration, strain MK-2", "value": "> 100", "unit": "µg/mL"}]}
{"compound": "CC(=O)C(=O)NC1C=C(C)C=CC(OC(=O)c2ccccc2)CC=C(C)C=CC(O)CC2OC(=O)C1(C)C(=O)C2C", "note": "(stereo not drawn) [Lankacidin C 8-benzoate, lankacidin C 8-benzoate]", "values": [{"measurement": "MIC", "setting": "[1]; [3]", "value": 0.1, "unit": "µg/mL"}, {"measurement": "MIC", "setting": "[1]; [4]", "value": 0.1, "unit": "µg/mL"}, {"measurement": "MIC", "setting": "[1]; [5]", "value": 0.1, "unit": "µg/mL"}, {"measurement": "MIC", "setting": "[1]; [6]", "value": 0.1, "unit": "µg/mL"}]}
{"compound": "CCC(=O)OC1C=CC(C)=CC(NC(=O)C(C)=O)C2(C)C(=O)OC(CC(O)C=CC(C)=CC1)C(C)C2=O", "note": "(stereo not drawn) [Lankacidin C 8-propionate, lankacidin C 8-propionate]", "values": [{"measurement": "MIC", "setting": "[1]; [3]", "value": 1.56, "unit": "µg/mL"}, {"measurement": "MIC", "setting": "[1]; [4]", "value": 1.56, "unit": "µg/mL"}, {"measurement": "MIC", "setting": "[1]; [5]", "value": 1.56, "unit": "µg/mL"}, {"measurement": "MIC", "setting": "[1]; [6]", "value": 1.56, "unit": "µg/mL"}]}
